In US20260007681A1, “INDOLE DERIVATIVES AS ESTROGEN RECEPTOR DEGRADERS” (REGENTS OF THE UNIVERSITY OF MICHIGAN, priority 2022, published 2026):
Where two headings read alike, the source gives them in different places.

Experiments:
[1] = Cell growth assay (WST-8) (Compounds B1-B278); type: cell-based; settings: T47D cell line, WST-8, 4 days, read-out: Cell Growth Inhibition in T47D cell line IC50
How it was run: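 Read-out is WST-8 absorbance at 450 nm (2.5 h, 37° C) as a fraction of vehicle control, from three separate repeats. Compound exposure lasted 4 days, starting one day after plating 1500 cells/well.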

ER = ER (Homo sapiens (Human), UniProt P03372); assay: In-cell western blot analysis of relative ER percentage (Compounds B1-B278); type: cell-based; settings: ER degradation, 16 hours, read-out: ICW DC50
How it was run: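 In-cell western: after 16 h compound exposure (0.5% DMSO final), fixed and permeabilized cells are probed with anti-ER plus anti-GAPDH and near-infrared secondaries. Relative ER percentage compares treated wells against untreated and DMSO wells taken as 100%; seeding 40,000 or 10,000 cells/well.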

ER, sequence (P03372 whole entry): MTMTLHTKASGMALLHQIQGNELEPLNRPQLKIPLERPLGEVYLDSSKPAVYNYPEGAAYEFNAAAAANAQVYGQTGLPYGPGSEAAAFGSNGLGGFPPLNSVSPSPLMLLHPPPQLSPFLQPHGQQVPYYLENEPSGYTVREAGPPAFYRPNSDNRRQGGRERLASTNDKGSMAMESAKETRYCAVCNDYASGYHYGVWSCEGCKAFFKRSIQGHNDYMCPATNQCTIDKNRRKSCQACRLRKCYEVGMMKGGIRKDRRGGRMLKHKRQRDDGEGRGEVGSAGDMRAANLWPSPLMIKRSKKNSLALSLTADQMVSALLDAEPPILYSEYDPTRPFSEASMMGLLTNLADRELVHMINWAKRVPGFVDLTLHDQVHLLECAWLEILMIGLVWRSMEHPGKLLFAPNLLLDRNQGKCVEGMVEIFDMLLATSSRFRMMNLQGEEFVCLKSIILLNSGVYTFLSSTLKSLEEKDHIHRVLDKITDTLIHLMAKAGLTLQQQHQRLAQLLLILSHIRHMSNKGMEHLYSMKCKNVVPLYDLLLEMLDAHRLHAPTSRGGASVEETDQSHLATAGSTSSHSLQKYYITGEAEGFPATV

DC50 (ER)	SMILES	IC50 ([1]; 96 h)	IC50 [1]
> 100 nM	C[C@@H]1CC2c3ccccc3NC2[C@@H](c2c(F)cc(N3CCC4(CC3)CC(CN3CCN5c6cc7c(cc6OC[C@H]5C3)C(=O)N(C3CCC(=O)NC3=O)C7)CO4)cc2F)N1CC(F)(F)CO (stereo partly drawn) [Compound B267, 3-((4aR)-3-((8-(4-((1R,3R)-2-(2,2-difluoro-3-hydroxypropyl)-3-methyl-2,3,4,4a,9,9a-hexahydro-1H-pyrido[3,4-b]indol-1-yl)-3,5-difluorophenyl)-1-oxa-8-azaspiro[4.5]decan-3-yl)methyl)-8-oxo-1,2,3,4,4a,5,8,10-octahydro-9H-pyrazino[1′,2′:4,5][1,4]oxazino[2,3-f]isoindol-9-yl)piperidine-2,6-dione]	> 10 nM	
10 to 100 nM	C[C@@H]1Cc2c([nH]c3ccccc23)[C@@H](c2ccc(N3CCC4(CC3)CC(CN3CCN5c6ccc7c(c6OC[C@H]5C3)CN(C3CCC(=O)NC3=O)C7=O)CO4)cn2)N1CC(F)(F)F (stereo partly drawn) [Compound B268, (3S)-3-((5aR)-7-((8-(6-((1S,3R)-3-methyl-2-(2,2,2-trifluoroethyl)-2,3,4,9-tetrahydro-1H-pyrido[3,4-b]indol-1-yl)pyridin-3-yl)-1-oxa-8-azaspiro[4.5]dccan-3-yl)methyl)-1-oxo-1,3,5,5a,6,7,8,9-octahydro-2H-pyrazino[1′,2′:4,5][1,4]oxazino[2,3-e]isoindol-2-yl)piperidine-2,6-dione]	1 to 10 nM	
10 to 100 nM	C[C@@H]1Cc2c([nH]c3ccccc23)[C@@H](c2ccc(N3CCC4(CC3)CC(CN3CCN5c6cc7c(cc6OC[C@@H]5C3)C(=O)N(C3CCC(=O)NC3=O)C7)CO4)cn2)N1CC(F)(F)F (stereo partly drawn) [Compound B269, 3-((4aS)-3-((8-(6-((1S,3R)-3-methyl-2-(2,2,2-trifluoroethyl)-2,3,4,9-tetrahydro-1H-pyrido[3,4-b]indol-1-yl)pyridin-3-yl)-1-oxa-8-azaspiro[4.5]decan-3-yl)methyl)-8-oxo-1,2,3,4,4a,5,8,10-octahydro-9H-pyrazino[1′,2′:4,5][1,4]oxazino[2,3-f]isoindol-9-yl)piperidine-2,6-dione]		1 to 10 nM
10 to 100 nM	C[C@@H]1Cc2c([nH]c3ccccc23)[C@@H](c2c(F)cc(N3CCC4(CC3)OCC(CN3CCN5c6cc7c(cc6OC[C@@H]5C3)C(=O)N(C3CCC(=O)NC3=O)C7)CO4)cc2F)N1CC(F)(F)CO (stereo partly drawn) [Compound B270, 3-((S)-3-((9-(4-((1R,3R)-2-(2,2-difluoro-3-hydroxypropyl)-3-methyl-2,3,4,9-tetrahydro-1H-pyrido[3,4-b]indol-1-yl)-3,5-difluorophenyl)-1,5-dioxa-9-azaspiro[5.5]undecan-3-yl)methyl)-8-oxo-1,2,3,4,4a,5,8,10-octahydro-9H-pyrazino[1′,2′:4,5][1,4]oxazino[2,3-f]isoindol-9-yl)piperidine-2,6-dione]	< 1 nM	
10 to 100 nM	COc1cc(N2CCC3(CC2)OCC(CN2CCN4c5ccc6c(c5OC[C@@H]4C2)CN([C@@H]2CCC(=O)NC2=O)C6=O)CO3)ccc1[C@@H]1c2[nH]c3ccccc3c2C[C@@H](C)N1CC(F)F [Compound B271, (R)-3-((S)-7-((9-(4-((1R,3R)-2-(2,2-difluoroethyl)-3-methyl-2,3,4,9-tetrahydro-1H-pyrido[3,4-b]indol-1-yl)-3-methoxyphenyl)-1,5-dioxa-9-azaspiro[5.5]undecan-3-yl)methyl)-1-oxo-1,3,5,5a,6,7,8,9-octahydro-2H-pyrazino[1′,2′:4,5][1,4]oxazino[2,3-e]isoindol-2-yl)piperidine-2,6-dione]	< 1 nM	
10 to 100 nM	C[C@@H]1Cc2c([nH]c3ccccc23)[C@@H](c2cnc(N3CCC4(CC3)OCC(CN3CCN5c6ccc7c(c6OC[C@H]5C3)CN([C@H]3CCC(=O)NC3=O)C7=O)CO4)nc2)N1CC(F)(F)CO [Compound B272, (S)-3-((R)-7-((9-(5-((1R,3R)-2-(2,2-difluoro-3-hydroxypropyl)-3-methyl-2,3,4,9-tetrahydro-1H-pyrido[3,4-b]indol-1-yl)pyrimidin-2-yl)-1,5-dioxa-9-azaspiro[5.5]undecan-3-yl)methyl)-1-oxo-1,3,5,5a,6,7,8,9-octahydro-2H-pyrazino[1′,2′:4,5][1,4]oxazino[2,3-e]isoindol-2-yl)piperidine-2,6-dione]	< 1 nM	
10 to 100 nM	COc1cc(N2CCC3(CC2)OCC(CN2CCN4c5cc6c(cc5OC[C@H]4C2)C(=O)N(C2CCC(=O)NC2=O)C6)CO3)ccc1[C@@H]1c2[nH]c3ccccc3c2C[C@@H](C)N1CC(F)F (stereo partly drawn) [Compound B273, 3-((R)-3-((9-(4-((1R,3R)-2-(2,2-difluoroethyl)-3-methyl-2,3,4,9-tetrahydro-1H-pyrido[3,4-b]indol-1-yl)-3-methoxyphenyl)-1,5-dioxa-9-azaspiro [5.5]undecan-3-yl)methyl)-8-oxo-1,2,3,4,4a,5,8,10-octahydro-9H-pyrazino[1′,2′:4,5][1,4]oxazino[2,3-f]isoindol-9-yl)piperidine-2,6-dione]	1 to 10 nM	
> 100 nM	C[C@@H]1Cc2c([nH]c3ccccc23)[C@@H](c2cnc(N3CC4(C3)OCC(CN3CCN5c6ccc7c(c6OC[C@H]5C3)CN([C@H]3CCC(=O)NC3=O)C7=O)CO4)nc2)N1CC(F)(F)CO [Compound B275, (S)-3-((R)-7-((2-(5-((1R,3R)-2-(2,2-difluoro-3-hydroxypropyl)-3-methyl-2,3,4,9-tetrahydro-1H-pyrido[3,4-b]indol-1-yl)pyrimidin-2-yl)-5,9-dioxa-2-azaspiro[3.5]nonan-7-yl)methyl)-1-oxo-1,3,5,5a,6,7,8,9-octahydro-2H-pyrazino[1′,2′:4,5][1,4]oxazino[2,3-e]isoindol-2-yl)piperidine-2,6-dione]	> 10 nM	
> 100 nM	C[C@@H]1Cc2c([nH]c3ccccc23)[C@@H](c2cnc(N3CC4(C3)OCC(CN3CCN5c6cc7c(cc6OC[C@@H]5C3)C(=O)N(C3CCC(=O)NC3=O)C7)CO4)nc2)N1CC(F)(F)CO (stereo partly drawn) [Compound B276, 3-((S)-3-((2-(5-((1R,3R)-2-(2,2-difluoro-3-hydroxypropyl)-3-methyl-2,3,4,9-tetrahydro-1H-pyrido[3,4-b]indol-1-yl)pyrimidin-2-yl)-5,9-dioxa-2-azaspiro[3.5]nonan-7-yl)methyl)-8-oxo-1,2,3,4,4a,5,8,10-octahydro-9H-pyrazino[1′,2′:4,5][1,4]oxazino[2,3-f]isoindol-9-yl)piperidine-2,6-dione]	> 10 nM	
10 to 100 nM	COc1cc(N2CC3(CCC(CN4CCN5c6ccc7c(c6OC[C@H]5C4)CN(C4CCC(=O)NC4=O)C7=O)CO3)C2)ccc1[C@@H]1c2[nH]c3ccccc3c2C[C@@H](C)N1CC(F)F (stereo partly drawn) [Compound B277, 3-((5aR)-7-((2-(4-((1R,3R)-2-(2,2-difluoroethyl)-3-methyl-2,3,4,9-tetrahydro-1H-pyrido[3,4-b]indol-1-yl)-3-methoxyphenyl)-5-oxa-2-azaspiro[3.5]nonan-7-yl)methyl)-1-oxo-1,3,5,5a,6,7,8,9-octahydro-2H-pyrazino[1′,2′:4,5][1,4]oxazino[2,3-e]isoindol-2-yl)piperidine-2,6-dione]	1 to 10 nM	
10 to 100 nM	COc1cc(N2CC3(CCC(CN4CCN5c6cc7c(cc6OC[C@@H]5C4)C(=O)N(C4CCC(=O)NC4=O)C7)CO3)C2)ccc1[C@@H]1c2[nH]c3ccccc3c2C[C@@H](C)N1CC(F)F (stereo partly drawn) [Compound B278, 3-((4aS)-3-((2-(4-((1R,3R)-2-(2,2-difluoroethyl)-3-methyl-2,3,4,9-tetrahydro-1H-pyrido[3,4-b]indol-1-yl)-3-methoxyphenyl)-5-oxa-2-azaspiro[3.5]nonan-7-yl)methyl)-8-oxo-1,2,3,4,4a,5,8,10-octahydro-9H-pyrazino[1′,2′:4,5][1,4]oxazino[2,3-f]isoindol-9-yl)piperidine-2,6-dione]	1 to 10 nM	

SMILES	DC50 (ER)	IC50 ([1]; 96 h)	IC50 [1]
COc1cc(N2CCC3(CC2)OCC(CN2CCC4(CC2)COc2c4ccc4c2CN(C2CCC(=O)NC2=O)C4=O)CO3)ccc1[C@@H]1c2[nH]c3ccccc3c2C[C@@H](C)N1CC(F)F (stereo partly drawn) [Compound B274, 3-(1′-((9-(4-((1R,3R)-2-(2,2-difluoroethyl)-3-methyl-2,3,4,9-tetrahydro-1H-pyrido[3,4-b]indol-1-yl)-3-methoxyphenyl)-1,5-dioxa-9-azaspiro[5.5]undecan-3-yl)methyl)-6-oxo-6,8-dihydro-2H,7H-spiro[furo[2,3-e]isoindole-3,4′-piperidin]-7-yl)piperidine-2,6-dione]	10 to 100 nM	< 1 nM	
